We go through 15 compounds from article PMC9393390 (Frontiers in Pharmacology, 2022).

Like-named read-outs stand apart in the source and are kept apart here.

In one assay the target is T1, SARS-CoV-2-RBD (S-RBD) (Severe acute respiratory syndrome coronavirus 2, UniProt P0DTC2).
T1 construct: purchased Sino Biological
The assay is described as follows: Surface plasmon resonance (SPR) binding to immobilized S-RBD. A general note: Surface plasmon resonance follows binding to a sensor surface in real time, without labels.

A further assay addresses T2, hACE2 (Homo sapiens, UniProt Q9BYF1).
T2 construct: purchased Sino Biological
The assay is described as follows: Surface plasmon resonance (SPR) binding to immobilized hACE2. As to the method: The recombinant S-RBD (Sino Biological, Beijing, China) and hACE2 protein (Sino Biological, Beijing, China) were used for surface plasmon resonance (SPR) analysis using a Biacore 8K instrument (Biacore, Uppsala, Sweden) as previously described ([Chu et al., 2018a]; [Chu et al., 2018b]). Each target was immobilized onto flow cells in a CM5 sensor chip (GE Healthcare) via the amine-coupling method. Briefly, S-RBD was diluted in 10 mM pH 5.5 acetate to 20 µg/ml, while hACE2 was diluted in 10 mM pH 4.5 acetate to 20 µg/ml. Then the protein solutions were injected individually on the carboxyl modified sensor surface to form amine bonds. Both S-RBD and hACE2 immobilized levels were about 10,000 RU. Binding analyses were carried out at 25 °C and a flow rate of 30 μl min^−1. The retrieved drugs in a running buffer (1×PBS, 0.05% Tween 20 and 5% dimethyl sulfoxide, pH 7.4) were run over each target at gradient concentrations as indicated. An empty flow cell, without any immobilized protein, was used as a deducted reference. The binding curves were analyzed using a kinetic binding model supplied with Biacore Evaluation Software (GE Healthcare).
To evaluate the retrieved inhibitors against the S-RBD-hACE2, surface plasmon resonance (SPR) was used to determine the binding affinities of the 20 retrieved drugs to S-RBD and hACE2.
SPR analysis was performed to assess the retrieved drugs binding to hACE2 at gradient concentrations. The binding curves were analyzed using a kinetic analysis supplied with Biacore Evaluation Software. Data are presented as RU over time (s). The K D were calculated using a 1:1 binding model.

Assay [1] has as its target S-RBD binding to hACE2 (Severe acute respiratory syndrome coronavirus 2, UniProt P0DTC2). The assay is described as follows: Competitive inhibition ELISA (SARS-CoV-2 inhibitor screening kit). The class given is biochemical. The conditions noted are these: 1 μM.
Assay [2] deals with T3, S-RBD binding to hACE2 (Homo sapiens, UniProt Q9BYF1).
T3 construct: purchased Sino Biological
The assay is described as follows: SPR competition binding experiment (S-RBD on immobilized hACE2). As to conditions: competitive SPR, 40 nM S-RBD, 25 μM to 0.012 μM.

Where [3] appears, read: SPR, 25 °C, 1:1 binding model, read-out: ACE2 K D.
The mark [4] stands for this setting: SPR, 25 °C, 1:1 binding model, read-out: S-RBD K D.

T2 sequence (Q9BYF1 18-805): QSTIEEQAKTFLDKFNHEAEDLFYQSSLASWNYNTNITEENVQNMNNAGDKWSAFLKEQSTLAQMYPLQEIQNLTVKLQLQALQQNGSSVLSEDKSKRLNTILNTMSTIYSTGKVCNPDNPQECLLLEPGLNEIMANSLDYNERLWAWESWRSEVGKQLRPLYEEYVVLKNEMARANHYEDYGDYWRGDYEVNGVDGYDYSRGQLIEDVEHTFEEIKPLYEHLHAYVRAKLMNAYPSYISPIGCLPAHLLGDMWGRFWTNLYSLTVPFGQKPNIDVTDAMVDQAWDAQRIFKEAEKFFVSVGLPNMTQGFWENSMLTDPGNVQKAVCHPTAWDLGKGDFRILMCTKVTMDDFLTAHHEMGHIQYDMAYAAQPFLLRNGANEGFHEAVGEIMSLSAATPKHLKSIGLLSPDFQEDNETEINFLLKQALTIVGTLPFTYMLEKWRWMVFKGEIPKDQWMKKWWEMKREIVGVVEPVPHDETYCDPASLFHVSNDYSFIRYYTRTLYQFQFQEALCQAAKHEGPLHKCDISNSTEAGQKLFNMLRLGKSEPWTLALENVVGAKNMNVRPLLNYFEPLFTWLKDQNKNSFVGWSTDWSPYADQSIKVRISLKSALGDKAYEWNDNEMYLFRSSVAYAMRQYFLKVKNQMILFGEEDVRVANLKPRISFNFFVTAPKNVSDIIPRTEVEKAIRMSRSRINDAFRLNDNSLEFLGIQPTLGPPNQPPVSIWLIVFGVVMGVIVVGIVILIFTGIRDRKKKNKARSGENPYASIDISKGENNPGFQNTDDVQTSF
T3 sequence (Q9BYF1 18-740): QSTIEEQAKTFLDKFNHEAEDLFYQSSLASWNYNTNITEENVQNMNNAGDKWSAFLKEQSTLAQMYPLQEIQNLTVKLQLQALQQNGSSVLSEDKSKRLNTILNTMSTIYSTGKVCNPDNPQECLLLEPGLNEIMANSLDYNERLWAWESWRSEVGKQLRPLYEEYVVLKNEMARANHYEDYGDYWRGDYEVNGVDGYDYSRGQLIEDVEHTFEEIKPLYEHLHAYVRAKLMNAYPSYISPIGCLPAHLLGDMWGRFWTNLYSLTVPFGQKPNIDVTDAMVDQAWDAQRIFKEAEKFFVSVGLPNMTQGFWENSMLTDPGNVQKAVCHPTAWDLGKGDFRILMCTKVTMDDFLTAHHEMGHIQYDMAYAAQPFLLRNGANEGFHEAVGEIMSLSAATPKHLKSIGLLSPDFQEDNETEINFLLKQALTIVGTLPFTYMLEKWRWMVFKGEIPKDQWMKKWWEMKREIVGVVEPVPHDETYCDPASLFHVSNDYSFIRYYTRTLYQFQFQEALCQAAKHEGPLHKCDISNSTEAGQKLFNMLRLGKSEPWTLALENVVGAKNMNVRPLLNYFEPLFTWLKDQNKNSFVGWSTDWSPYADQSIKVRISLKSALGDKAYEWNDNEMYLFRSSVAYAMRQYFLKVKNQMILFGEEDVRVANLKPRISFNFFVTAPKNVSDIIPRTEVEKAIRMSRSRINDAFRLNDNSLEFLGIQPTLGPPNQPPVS

On SARS-CoV-2-RBD (S-RBD), `Nc1c(Br)cc(Br)cc1CN[C@H]1CC[C@H](O)CC1` [Ambroxol] displayed a Kd of 21.2 µM.
As for Aescin, the Kd at hACE2 (setting [3]) was determined as 105 µM.
Regarding `Cc1ccc([C@@H]2O[C@H](CO)[C@@H](O)[C@H](O)[C@H]2O)cc1Cc1ccc(-c2ccc(F)cc2)s1` [Canagliflozin], the Kd at SARS-CoV-2-RBD (S-RBD) (setting [4]) is 23.1 µM.
As for `O=S(=O)(O)Oc1ccc(C(c2ccc(OS(=O)(=O)O)cc2)c2ccccn2)cc1` [Sodium Picosulfate], the Kd on hACE2 was 45.4 µM; at SARS-CoV-2-RBD (S-RBD) it was 16 µM.
In the case of `CC[C@H](C)C(=O)O[C@H]1CCC=C2C=C[C@H](C)[C@H](CC[C@@H]3C[C@@H](O)CC(=O)O3)[C@H]21` [Mevastatin], the Kd on SARS-CoV-2-RBD (S-RBD) came to 273 µM.
For `CCC(C)(C)C(=O)O[C@H]1C[C@@H](C)C=C2C=C[C@H](C)[C@H](CC[C@@H]3C[C@@H](O)CC(=O)O3)[C@H]21` [Simvastatin], the Kd at hACE2 is 35.8 µM.
Turning to `C[C@@H]1[C@H](O)[C@@H](C)/C=C/C=C/CC/C=C/C=C/C=C/C=C/C(O[C@H]2O[C@H](C)[C@@H](O)[C@H](N)[C@@H]2O)CC2O[C@](O)(CC(O)C(O)CCC(O)CC(O)CC(O)CC(=O)O[C@H]1C)CC(O)C2C(=O)O` (some centres unmarked) [Nystatin], on SARS-CoV-2-RBD (S-RBD) (setting [4]), the Kd came to 215 µM.
In the case of `COC(=O)C1=CO[C@@H](O[C@@H]2O[C@H](CO)[C@@H](O)[C@H](O)[C@H]2O)[C@@H]2C(CO)=CC[C@H]12` [Geniposide], the Kd on SARS-CoV-2-RBD (S-RBD) was 54.9 µM.
As to Sodium aescinate, the Kd on SARS-CoV-2-RBD (S-RBD) (setting [4]) amounted to 16.8 µM.
For `Cc1cc(OCCCS(C)(=O)=O)cc(C)c1-c1cccc(COc2ccc3c(c2)OC[C@H]3CC(=O)O)c1` [Fasiglifam], the Kd on hACE2 came out at 10.5 µM; at SARS-CoV-2-RBD (S-RBD), 42.2 µM.
The compound `CC(C)=CCC[C@](C)(O[C@@H]1O[C@H](CO[C@@H]2O[C@@H](CO)[C@H](O)[C@H]2O)[C@@H](O)[C@H](O)[C@H]1O)[C@H]1CC[C@]2(C)[C@@H]1[C@H](O)C[C@@H]1[C@@]3(C)CC[C@H](O[C@@H]4O[C@H](CO)[C@@H](O)[C@H](O)[C@H]4O[C@@H]4O[C@H](CO)[C@@H](O)[C@H](O)[C@H]4O)C(C)(C)[C@@H]3CC[C@]12C` [Ginsenoside Rc] gave a Kd at SARS-CoV-2-RBD (S-RBD) of 79.8 µM.
On to `C[C@@H]1[C@H](O)[C@@H](C)/C=C/C=C/C=C/C=C/C=C/C=C/C=C/[C@H](O[C@@H]2O[C@H](C)[C@@H](O)[C@H](N)[C@@H]2O)C[C@@H]2O[C@](O)(C[C@@H](O)C[C@@H](O)[C@H](O)CC[C@@H](O)C[C@@H](O)CC(=O)O[C@H]1C)C[C@H](O)[C@H]2C(=O)O` [Amphotericin B], for which the values for the Kd on hACE2 and at SARS-CoV-2-RBD (S-RBD) were 9.49 µM and 1.01 µM, respectively.
In the case of `O=C(OCC1OC(OC(=O)c2cc(O)c(O)c(OC(=O)c3cc(O)c(O)c(O)c3)c2)C(OC(=O)c2cc(O)c(O)c(OC(=O)c3cc(O)c(O)c(O)c3)c2)C(OC(=O)c2cc(O)c(O)c(OC(=O)c3cc(O)c(O)c(O)c3)c2)C1OC(=O)c1cc(O)c(O)c(OC(=O)c2cc(O)c(O)c(O)c2)c1)c1cc(O)c(O)c(OC(=O)c2cc(O)c(O)c(O)c2)c1` (centres unmarked) [Tannic acid], the “prevention of S-RBD binding to hACE2” value on S-RBD binding to hACE2 [1] is on record as “prevented S-RBD from binding to hACE2”. The Kd at hACE2 (read-out: ACE2 K D, SPR, 25 °C, 1:1 binding model) is 8.55 µM. The “interference with binding of S-RBD to hACE2” value on S-RBD binding to hACE2 [2] is listed as “interfered with the binding of the S-RBD to hACE2 in a dose-dependent manner”.
For the compound `COC(=O)C1=CC[C@@]23CC[C@@H]([C@@](C)(/C=C/C=C(\C)C(=O)O)OC2=O)[C@@]3(OC(C)=O)CC1` [Pseudolaric acid B], the Kd on hACE2 worked out at 53.8 µM.
As for Teichomycin, at hACE2 (setting [3]), the Kd was found to be 250 µM.
